The assay concerns CD2F1 mice, L1210 leukemia ip, survival T/C. The experiment in a line: NCI In Vivo Anticancer Drug Screen. Data for tumor model L1210 Leukemia (intraperitoneal) in CD2F1 (CDF1) mice. As to conditions: endpoint: mean survival time, higher = longer survival. Put shortly:
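Tumor-bearing mice (transplanted tumor) were split into treated and vehicle control groups, and the measured endpoint of each treated group was divided by that of its vehicle controls.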

The mark [1] stands for this setting: dose: 12.5 mg/kg/injection, schedule: Q01DX009 (ip), vehicle: saline with Tween-80.
Where [2] appears, read: dose: 25.0 mg/kg/injection, schedule: Q01DX009 (ip), vehicle: saline with Tween-80.
[3] abbreviates: dose: 100.0 mg/kg/injection, schedule: Q01DX009 (ip), vehicle: saline with Tween-80.
[4] abbreviates: dose: 200.0 mg/kg/injection, schedule: Q01DX009 (ip), vehicle: saline with Tween-80.
The mark [5] stands for this setting: dose: 400.0 mg/kg/injection, schedule: Q01DX009 (ip), vehicle: saline with Tween-80.
Where [6] appears, read: dose: 100.0 mg/kg/injection, schedule: Q04DX002 (ip), vehicle: saline with Tween-80.
[7] abbreviates: dose: 200.0 mg/kg/injection, schedule: Q04DX002 (ip), vehicle: saline with Tween-80.
[8] abbreviates: dose: 100.0 mg/kg/injection, schedule: Q04DX003 (ip), vehicle: saline with Tween-80.
Setting [9] is: dose: 100.0 mg/kg/injection, schedule: Q01DX009 (ip), vehicle: saline.
Setting [10] is: dose: 200.0 mg/kg/injection, schedule: Q01DX009 (ip), vehicle: saline.
Where [11] appears, read: dose: 400.0 mg/kg/injection, schedule: Q01DX009 (ip), vehicle: saline.
The mark [12] stands for this setting: dose: 100.0 mg/kg/injection, schedule: Q01DX001 (ip), vehicle: saline.
Setting [13] is: dose: 200.0 mg/kg/injection, schedule: Q01DX001 (ip), vehicle: saline.
[14] abbreviates: dose: 400.0 mg/kg/injection, schedule: Q01DX001 (ip), vehicle: saline.
[15] abbreviates: dose: 100.0 mg/kg/injection, schedule: Q01DX001 (ip), vehicle: saline with Tween-80.
The mark [16] stands for this setting: dose: 200.0 mg/kg/injection, schedule: Q01DX001 (ip), vehicle: saline with Tween-80.
[17] abbreviates: dose: 400.0 mg/kg/injection, schedule: Q01DX001 (ip), vehicle: saline with Tween-80.
[18] abbreviates: dose: 200.0 mg/kg/injection, schedule: Q04DX003 (ip), vehicle: saline with Tween-80.
The mark [19] stands for this setting: dose: 400.0 mg/kg/injection, schedule: Q04DX003 (ip), vehicle: saline with Tween-80.

Experimental findings from PubChem BioAssay AID256 (DTP/NCI, 2004) are described below.

Where “and” joins values, the source holds several entries; their conditions need not be identical. Equal values may be shown once. Inconclusive results and toxic doses are left out.

Take `O=CC=O`: the T/C runs as follows: under setting [1], 100 % of control and 106 % of control; under setting [2], 103 % of control and 107 % of control; (dose: 50.0 mg/kg/injection, schedule: Q01DX009 (ip), vehicle: saline with Tween-80) 97 % of control and 106 % of control; under setting [3], 115 % of control and 107 % of control; under setting [4], 106 % of control and 111 % of control; under setting [5], 120 % of control and 108 % of control.
Take `COc1ccc(/C=C(\C#N)c2ccc(C)cc2)cc1OC`: the T/C by setting is: under setting [3], 101 % of control; under setting [4], 108 % of control; under setting [5], 107 % of control.
For the compound `CC1(CBr)Oc2ccccc2O1`, the T/C is 97 % of control (dose: 100.0 mg/kg/injection, schedule: Q04DX003 (ip), vehicle: Klucel (hydroxypropylcellulose) (HPC)); 88 % of control (dose: 200.0 mg/kg/injection, schedule: Q04DX003 (ip), vehicle: Klucel (hydroxypropylcellulose) (HPC)); 94 % of control (dose: 400.0 mg/kg/injection, schedule: Q04DX003 (ip), vehicle: Klucel (hydroxypropylcellulose) (HPC)).
Turning to `CCCCCCCCCCCCOCCOCCOCCOCCO`, the T/C runs as follows: under setting [6], 98 % of control; under setting [7], 102 % of control.
`c1ccc2[s+]cccc2c1`: the T/C under setting [8] was 95 % of control.
`CC(CC1CC=CCC1)C(=O)c1ccccc1` (stereo not drawn): the T/C (dose: 50.0 mg/kg/injection, schedule: Q04DX002 (ip), vehicle: saline with Tween-80) was 100 % of control; the T/C under setting [6] was 100 % of control; the T/C under setting [7] is 93 % of control; the T/C (dose: 400.0 mg/kg/injection, schedule: Q04DX002 (ip), vehicle: saline with Tween-80) was 89 % of control.
In the case of `NNC(=O)CCCO`, the T/C is 102 % of control under setting [9], 101 % of control under setting [10] and 102 % of control under setting [11].
In the case of `C=CCC1(C)C(OC(C)=O)/C(=C\c2ccco2)CC2(C)c3cc(OC)ccc3CCC21` (stereo not drawn), the T/C runs as follows: under setting [12], 101 % of control; under setting [13], 96 % of control; under setting [14], 96 % of control.
In the case of `CC(=O)NC(Cc1ccccc1)C(C)=O` (stereo not drawn), the T/C under setting [15] is 102 % of control, the T/C under setting [16] was 98 % of control and the T/C under setting [17] was 102 % of control.
Take `c1cc2c(c(OCC3=NCCN3)c1)CCCC2`: the T/C (dose: 25.0 mg/kg/injection, schedule: Q04DX002 (ip), vehicle: saline) was 94 % of control and the T/C (dose: 50.0 mg/kg/injection, schedule: Q04DX002 (ip), vehicle: saline) was 110 % of control.
Consider `CC1(C)CN1P(=S)(N1CC1(C)C)N1CC1(C)C` (stereo not drawn), for which, under “dose: 338.0 mg/kg/injection, schedule: Q01DX001 (ip), vehicle: other”, the T/C was 190 % of control and 277 % of control.
For the compound `NC(N)=Nc1ccc(C(=O)O)cc1`, the T/C under setting [8] is 100 % of control, the T/C under setting [18] was 95 % of control and the T/C under setting [19] was 88 % of control.
For `ClCC(Cl)C(Cl)CCl` (stereo not drawn), the T/C is 95 % of control (dose: 50.0 mg/kg/injection, schedule: Q01DX001 (ip), vehicle: saline with Tween-80); 109 % of control under setting [15]; 86 % of control under setting [16].
As for `C[N+](C)(C)C.N=C=O.N=C=O.N=C=O.N=C=O.[Co+2]`, for the setting “dose: 10.0 mg/kg/injection, schedule: Q01DX009 (ip), vehicle: saline”, the T/C was 98 % of control.
For the compound `CC(C)C1CCC(C)(Cl)C2CCC(C)(Cl)CC12` (stereo not drawn), the T/C under setting [8] was 96 % of control; the T/C (dose: 100.0 mg/kg/injection, schedule: Q04DX003 (ip), vehicle: saline) is 104 % of control; the T/C under setting [18] was 91 % of control; the T/C (dose: 200.0 mg/kg/injection, schedule: Q04DX003 (ip), vehicle: saline) was 102 % of control; the T/C under setting [19] was 93 % of control; the T/C (dose: 400.0 mg/kg/injection, schedule: Q04DX003 (ip), vehicle: saline) is 95 % of control.
Regarding `O=C(O)c1ccc([N+](=O)[O-])nc1`, the T/C reads like this: under setting [15], 91 % of control; under setting [16], 95 % of control; under setting [17], 93 % of control.
`CCCCCCCCCCCCCCCC(=O)N(CCCN(C)C)C1CCC(N(CCCN(C)C)C(=O)CCCCCCCCCCCCCCC)CC1` (stereo not drawn): the T/C under setting [1] was 101 % of control; the T/C (dose: 12.5 mg/kg/injection, schedule: Q04DX003 (ip), vehicle: saline with Tween-80) was 93 % of control; the T/C (dose: 25.0 mg/kg/injection, schedule: Q04DX003 (ip), vehicle: saline with Tween-80) was 111 % of control; the T/C (dose: 50.0 mg/kg/injection, schedule: Q04DX003 (ip), vehicle: saline with Tween-80) was 102 % of control.
Take `O=CNc1ccc(C(=O)O)c(O)c1`: the T/C is, setting by setting: under setting [12], 95 % of control; under setting [9], 94 % of control and 95 % of control; (dose: 100.0 mg/kg/injection, schedule: Q04DX002 (ip), vehicle: saline) 97 % of control; under setting [8], 100 % of control; under setting [13], 100 % of control and 106 % of control; under setting [10], 96 % of control and 98 % of control. The T/C was 86 % of control and 94 % of control (dose: 200.0 mg/kg/injection, schedule: Q04DX002 (ip), vehicle: saline); 98 % of control under setting [18]; 88 % of control and 92 % of control under setting [14]; 100 % of control under setting [11]; 92 % of control and 108 % of control (dose: 400.0 mg/kg/injection, schedule: Q04DX002 (ip), vehicle: saline); 98 % of control under setting [19].
Turning to `CC(C)c1cc2c(cc1O)C1(C)CCCC(C)(C#N)C1CC2` (stereo not drawn), the T/C (dose: 100.0 mg/kg/injection, schedule: Q01DX009 (ip), vehicle: saline sonified) was 95 % of control; the T/C (dose: 200.0 mg/kg/injection, schedule: Q01DX009 (ip), vehicle: saline sonified) is 89 % of control; the T/C (dose: 400.0 mg/kg/injection, schedule: Q01DX009 (ip), vehicle: saline sonified) was 91 % of control.
For `O=C(Nc1cccc(C(F)(F)F)c1)c1cccc(Cl)c1`, the T/C runs as follows: (dose: 100.0 mg/kg/injection, schedule: Q01DX009 (ip), vehicle: saline + alcohol) 94 % of control; (dose: 100.0 mg/kg/injection, schedule: Q04DX003 (ip), vehicle: saline + alcohol) 95 % of control; (dose: 200.0 mg/kg/injection, schedule: Q01DX009 (ip), vehicle: saline + alcohol) 94 % of control; (dose: 200.0 mg/kg/injection, schedule: Q04DX003 (ip), vehicle: saline + alcohol) 97 % of control; (dose: 400.0 mg/kg/injection, schedule: Q01DX009 (ip), vehicle: saline + alcohol) 98 % of control; (dose: 400.0 mg/kg/injection, schedule: Q04DX003 (ip), vehicle: saline + alcohol) 101 % of control.
In the case of `O=C(O)Cc1ccncc1`, the T/C is, setting by setting: under setting [8], 97 % of control; under setting [18], 100 % of control; under setting [19], 97 % of control.
`CN(C)c1nc2c(c(=O)n(C)c(=O)n2C)n1C`: the T/C was 94 % of control (dose: 12.5 mg/kg/injection, schedule: Q01DX005 (ip), vehicle: distilled water + Tween-80); 93 % of control (dose: 25.0 mg/kg/injection, schedule: Q01DX005 (ip), vehicle: distilled water + Tween-80); 93 % of control (dose: 50.0 mg/kg/injection, schedule: Q01DX005 (ip), vehicle: distilled water + Tween-80); 88 % of control (dose: 100.0 mg/kg/injection, schedule: Q01DX005 (ip), vehicle: distilled water + Tween-80).
For `CC(C)c1ccccc(=O)c1O.CC(C)c1ccccc(=O)c1O.[Cu]`, the T/C is 102 % of control (dose: 6.25 mg/kg/injection, schedule: Q01DX009 (ip), vehicle: saline with Tween-80); 100 % of control under setting [1]; 103 % of control under setting [2].
`Cc1nc([N+](=O)[O-])c(Br)n1C`: the T/C was 103 % of control under setting [8], 108 % of control under setting [18] and 94 % of control under setting [19].
Take `COC1(OC)C2(Cl)CCC1(Cl)CC2`: the T/C reads like this: (dose: 50.0 mg/kg/injection, schedule: Q01DX001 (ip), vehicle: saline) 103 % of control; under setting [12], 113 % of control; under setting [13], 102 % of control.
